Here are results for two molecules from patent US20220315558A1, “POLYMORPHS OF 1-(2-((((TRANS)-3-FLUORO-1-(3-FLUOROPYRIDIN-2-YL)CYCLOBUTYL)METHYL)AMINO)PYRIMIDIN-5-YL)-1H-PYRROLE-3-CARBOXAMIDE” (Cytokinetics, Inc., priority 2019, published 2022).

Format in all cases: physicochemical
A short description of series [1]: XRPD analysis after heating at 150° C. As for the experimental part:
Polymorphic Form II of 1-(2-((((trans)-3-fluoro-1-(3-fluoropyridin-2-yl)cyclobutyl)methyl)amino)pyrimidin-5-yl)-1H-pyrrole-3-carboxamide was analyzed by XRPD, DSC, TGA, and GVS.

Series [2] in a line: Gravimetric Vapour Sorption (GVS) moisture sorption isotherm. The note with it: over 0-90% RH range, 25° C. The procedure: GVS data were collected using a SMS DVS Intrinsic moisture sorption analyser, controlled by DVS Intrinsic Control software v1.0.0.30. The sample temperature was maintained at 25° C. by the instrument controls. The humidity was controlled by mixing streams of dry and wet nitrogen, with a total flow rate of 200 ml/min The relative humidity was measured by a calibrated Rotronic probe (dynamic range of 1.0-100% RH), located near the sample. The weight change, (mass relaxation) of the sample as a function of % RH was constantly monitored by the microbalance (accuracy ±0.005 mg).
Typically 5-20 mg of sample was placed in a tared mesh stainless steel basket under ambient conditions. The sample was loaded and unloaded at 40% RH and 25° C. (typical room conditions). A moisture sorption isotherm was performed as outlined below (2 scans giving 1 complete cycle). The standard isotherm was performed at 25° C. at 10% RH intervals over a 0-90% RH range. Data analysis was undertaken in Microsoft Excel using DVS Analysis Suite v6.0.

Series [3] in a line: Competitive slurry experiments between Form I and Form V. The following applies: XRPD. The procedure: For competitive slurry experiments, a mixture of Form I (˜10 mg) and Form V (˜10 mg) were suspended in 20 volumes of ethanol or methanol. Parallel maturation experiments were set up at a constant temperature, in the range of 4° C. to 60° C. for 9-12 days, the resulting solids (rapidly isolated by solvent decantation) were analyzed by XRPD. A mechanical mixture of Form I and Form V in equivalent weight was also analyzed by XRPD for reference. For the control experiments, slurries of Form I or Form V were subjected to the same conditions as in the competitive slurry experiments.
In an attempt to determine a transition temperature for the polymorph pair, a further four competitive slurry experiments were performed at a higher temperature range of 65-75° C. Using sealed vials, Form I (˜10 mg) and Form V (˜10 mg) were suspended in 20 volumes of ethanol or methanol and maturation continued for 2 days.

Structures are written as SMILES.

For the molecule `NC(=O)c1ccn(-c2cnc(NC[C@]3(c4ncccc4F)C[C@H](F)C3)nc2)c1` [Form II, 1-(2-((((trans)-3-fluoro-1-(3-fluoropyridin-2-yl)cyclobutyl)methyl)amino)pyrimidin-5-yl)-1H-pyrrole-3-carboxamide], the “solid form by XRPD after heating” value in series [1] was “converted to Form I”. Also, the “moisture uptake as determined by GVS” value in series [2] is reported as “about 1.65%”.
Turning to `NC(=O)c1ccn(-c2cnc(NC[C@]3(c4ncccc4F)C[C@H](F)C3)nc2)c1` [Form V, 1-(2-((((trans)-3-fluoro-1-(3-fluoropyridin-2-yl)cyclobutyl)methyl)amino)pyrimidin-5-yl)-1H-pyrrole-3-carboxamide], the “relative stability versus Form I (competitive slurry)” value is “more stable” in series [3] (ethanol, 4° C. to 60° C., 9-12 days); “more stable form” in series [3] (ethanol, 65-75° C., 2 days, sealed vials); “more stable” in series [3] (methanol, 4° C. to 60° C., 9-12 days). The “solid form obtained from Form I/Form V competitive slurry” value in series [3] (methanol, 65° C., 2 days, sealed vials) is recorded as “mixture of both forms”. Further, the “moisture uptake as determined by GVS” value in series [2] is reported as “less than 0.05%”.
